How the values were obtained:
[1] = Oral bioavailability in Beagle dog plasma at […] measured 24 hrs post dose by LC/MS/MS analysis; type: ADME, organism-based, Canis lupus familiaris
[2] = target: Cytochrome P450 3A4 (Homo sapiens, UniProt P08684); experiment: Inhibition of CYP3A4 in human liver microsomes after 5 mins in presence of NADPH by LC-MS/MS analysis; type: ADME
[3] = Cmax in Beagle dog plasma at […] administered via oral gavage measured 24 hrs post dose by LC/MS/MS analysis; type: ADME, organism-based, Canis lupus familiaris; parameters: dose 2.5 mg/kg, route oral
[4] = Cmax in Sprague-Dawley rat plasma at 5 mg/kg administered via oral gavage measured 24 hrs post dose by LC/MS/MS analysis; type: ADME, organism-based; parameters: dose 5 mg/kg, route oral
[5] = Volume of distribution at steady state in Sprague-Dawley rat plasma at 1 mg/kg, iv measured 24 hrs post dose by LC/MS/MS analysis; type: ADME, organism-based; details: read-out: Vdss
[6] = target: T1, Cytochrome P450 2B6 (Homo sapiens, UniProt P20813); experiment: Inhibition of CYP2B6 in human liver microsomes after 5 mins in presence of NADPH by LC-MS/MS analysis; type: ADME
T1 sequence (P20813 whole entry): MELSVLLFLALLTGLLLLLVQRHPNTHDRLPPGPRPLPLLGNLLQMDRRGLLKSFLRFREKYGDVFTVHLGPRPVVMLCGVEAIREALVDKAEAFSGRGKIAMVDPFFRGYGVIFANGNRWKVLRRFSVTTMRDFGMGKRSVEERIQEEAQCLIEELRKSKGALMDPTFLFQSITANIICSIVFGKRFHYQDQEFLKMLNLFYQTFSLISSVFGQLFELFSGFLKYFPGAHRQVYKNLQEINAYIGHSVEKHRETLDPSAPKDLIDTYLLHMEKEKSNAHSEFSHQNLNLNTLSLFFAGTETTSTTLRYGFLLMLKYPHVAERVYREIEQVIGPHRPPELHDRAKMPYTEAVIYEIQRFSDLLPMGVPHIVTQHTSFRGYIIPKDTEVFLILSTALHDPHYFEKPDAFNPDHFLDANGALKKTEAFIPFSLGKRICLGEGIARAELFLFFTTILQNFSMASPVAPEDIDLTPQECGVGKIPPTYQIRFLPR

[7] = Apparent permeability from apical to basolateral side in human Caco2 cells at 10 uM by lucifer yellow flux assay; type: ADME, cell-based; details: Caco-2
[8] = Fraction unbound in mouse plasma at 1 uM after 5 hrs by rapid equilibrium dialysis based LC-MS/MS analysis; type: ADME, cell-free

Sequence of Cytochrome P450 3A4 (P08684 whole entry): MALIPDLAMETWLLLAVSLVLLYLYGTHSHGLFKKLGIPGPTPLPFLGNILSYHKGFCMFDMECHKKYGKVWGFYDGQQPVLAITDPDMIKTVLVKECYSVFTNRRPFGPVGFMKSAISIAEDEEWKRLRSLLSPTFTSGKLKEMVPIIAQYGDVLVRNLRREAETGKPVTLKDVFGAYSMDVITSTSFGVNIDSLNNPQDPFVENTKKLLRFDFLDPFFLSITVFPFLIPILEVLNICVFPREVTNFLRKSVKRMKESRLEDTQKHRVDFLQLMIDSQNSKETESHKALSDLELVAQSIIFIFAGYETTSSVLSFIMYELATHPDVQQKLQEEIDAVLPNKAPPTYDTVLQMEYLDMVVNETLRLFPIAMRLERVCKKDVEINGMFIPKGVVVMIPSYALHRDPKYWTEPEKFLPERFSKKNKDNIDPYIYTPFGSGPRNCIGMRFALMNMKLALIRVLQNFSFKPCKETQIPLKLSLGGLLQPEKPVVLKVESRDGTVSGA

bioavailability at 24 h [1]: 65% | IC50 [2]: > 20 µM | Cmax at 24 h [3]: 1900 nM | Cmax [4]: 2000 nM | Vd [5]: 1.2 L/kg | IC50 [6]: > 20 µM | Papp A→B at 10 µM [7]: 13 ×10⁻⁶ cm/s | fraction unbound at 5 h, 1 µM [8]: 0.022
SMILES: C[C@H](NC(=O)c1c(N)nn2cccnc12)c1cc2cccc(C#Cc3cnn(C)c3)c2c(=O)n1-c1ccccc1 [EGANELISIB]
